Results as given in ChEMBL document CHEMBL1201861, “Genomics of Drug Sensitity in Cancer screening data, Wellcome Trust Sanger Institute”.
Several values for one entry are separate records, joined by “and”; a condition that tells them apart may be missing. Identical values can stand only once.

Tests used:
CFPAC-1 = assay: cells; type: functional, cell-based; conditions: Homo sapiens
Description: SANGER: Inhibition of human CFPAC-1 cell growth in a cell viability assay.

HuO9 = assay: cells; type: functional, cell-based, Homo sapiens
Description: SANGER: Inhibition of human HuO9 cell growth in a cell viability assay.

RH-18 = assay: cells; type: functional, cell-based; conditions: Homo sapiens, Rh18
Description: SANGER: Inhibition of human RH-18 cell growth in a cell viability assay.

TI-73 = assay: cells; type: functional, cell-based; conditions: Homo sapiens
Description: SANGER: Inhibition of human TI-73 cell growth in a cell viability assay.

NCI-H1573 = assay: cells; type: functional, cell-based; conditions: Homo sapiens
Description: SANGER: Inhibition of human NCI-H1573 cell growth in a cell viability assay.

EPLC-272H = assay: cells; type: functional, cell-based; conditions: Homo sapiens
Description: SANGER: Inhibition of human EPLC-272H cell growth in a cell viability assay.

ZR-75-30 = assay: cells; type: functional, cell-based; conditions: Homo sapiens
Description: SANGER: Inhibition of human ZR-75-30 cell growth in a cell viability assay.

LU-135 = assay: cells; type: functional, cell-based; conditions: Homo sapiens
Description: SANGER: Inhibition of human LU-135 cell growth in a cell viability assay.

D-566MG = assay: cells; type: functional, cell-based; conditions: Homo sapiens
NCI-H2029 = assay: cells; type: functional, cell-based; conditions: Homo sapiens
Description: SANGER: Inhibition of human NCI-H2029 cell growth in a cell viability assay.

NCI-H2291 = assay: cells; type: functional, cell-based; conditions: Homo sapiens
Description: SANGER: Inhibition of human NCI-H2291 cell growth in a cell viability assay.

D-423MG = assay: cells; type: functional, cell-based; conditions: Homo sapiens
Description: SANGER: Inhibition of human D-423MG cell growth in a cell viability assay.

CHP-134 = assay: SANGER: Inhibition of human CHP-134 cell growth in a cell viability assay.; type: functional, cell-based
SNG-M = assay: cells; type: functional, cell-based; conditions: Homo sapiens
Description: SANGER: Inhibition of human SNG-M cell growth in a cell viability assay.

HCC1599 = assay: cells; type: functional, cell-based; conditions: Homo sapiens
Description: SANGER: Inhibition of human HCC1599 cell growth in a cell viability assay.

Calu-1 = assay: SANGER: Inhibition of human Calu-1 cell growth in a cell viability assay.; type: functional, cell-based
MES-SA = assay: cells; type: functional, cell-based, Homo sapiens
Description: SANGER: Inhibition of human MES-SA cell growth in a cell viability assay.

DV-90 = assay: cells; type: functional, cell-based; conditions: Homo sapiens
Description: SANGER: Inhibition of human DV-90 cell growth in a cell viability assay.

THP-1 = assay: cells; type: functional, cell-based; conditions: Homo sapiens
Description: SANGER: Inhibition of human THP-1 cell growth in a cell viability assay.

DG-75 = assay: cells; type: functional, cell-based; conditions: Homo sapiens
Description: SANGER: Inhibition of human DG-75 cell growth in a cell viability assay.

MFE-296 = assay: SANGER: Inhibition of human MFE-296 cell growth in a cell viability assay.; type: functional, cell-based
TT = assay: cells; type: functional, cell-based; conditions: Homo sapiens
Description: SANGER: Inhibition of human TT cell growth in a cell viability assay.

IPC-298 = assay: SANGER: Inhibition of human IPC-298 cell growth in a cell viability assay.; type: functional, cell-based
SU-DHL-1 = assay: SANGER: Inhibition of human SU-DHL-1 cell growth in a cell viability assay.; type: functional, cell-based
COR-L279 = assay: SANGER: Inhibition of human COR-L279 cell growth in a cell viability assay.; type: functional, cell-based
NCI-H1734 = assay: cells; type: functional, cell-based; conditions: Homo sapiens
Description: SANGER: Inhibition of human NCI-H1734 cell growth in a cell viability assay.

HCC1143 = assay: cells; type: functional, cell-based; conditions: Homo sapiens
Description: SANGER: Inhibition of human HCC1143 cell growth in a cell viability assay.

EHEB = assay: cells; type: functional, cell-based; conditions: Homo sapiens
Description: SANGER: Inhibition of human EHEB cell growth in a cell viability assay.

CCF-STTG1 = assay: cells; type: functional, cell-based; conditions: Homo sapiens
Description: SANGER: Inhibition of human CCF-STTG1 cell growth in a cell viability assay.

SK-CO-1 = assay: cells; type: functional, cell-based; conditions: Homo sapiens
Description: SANGER: Inhibition of human SK-CO-1 cell growth in a cell viability assay.

NCI-H187 = assay: cells; type: functional, cell-based; conditions: Homo sapiens
Description: SANGER: Inhibition of human NCI-H187 cell growth in a cell viability assay.

CPC-N = assay: cells; type: functional, cell-based; conditions: Homo sapiens
Description: SANGER: Inhibition of human CPC-N cell growth in a cell viability assay.

MDA-MB-134-VI = assay: cells; type: functional, cell-based; conditions: Homo sapiens
Description: SANGER: Inhibition of human MDA-MB-134-VI cell growth in a cell viability assay.

LU-165 = assay: cells; type: functional, cell-based; conditions: Homo sapiens
Description: SANGER: Inhibition of human LU-165 cell growth in a cell viability assay.

EFE-184 = assay: cells; type: functional, cell-based; conditions: Homo sapiens
Description: SANGER: Inhibition of human EFE-184 cell growth in a cell viability assay.

OPM-2 = assay: cells; type: functional, cell-based; conditions: Homo sapiens
Description: SANGER: Inhibition of human OPM-2 cell growth in a cell viability assay.

SNU-475 = assay: cells; type: functional, cell-based; conditions: Homo sapiens
Description: SANGER: Inhibition of human SNU-475 cell growth in a cell viability assay.

TUR = assay: cells; type: functional, cell-based; conditions: Homo sapiens
Description: SANGER: Inhibition of human TUR cell growth in a cell viability assay.

JIYOYE = assay: cells; type: functional, cell-based; conditions: Homo sapiens
Description: SANGER: Inhibition of human JiyoyeP-2003 cell growth in a cell viability assay.

C-4-II = assay: SANGER: Inhibition of human C-4-II cell growth in a cell viability assay.; type: functional, cell-based
LOUCY = assay: cells; type: functional, cell-based; conditions: Homo sapiens
Description: SANGER: Inhibition of human LOUCY cell growth in a cell viability assay.

NCI-H1618 = assay: cells; type: functional, cell-based; conditions: Homo sapiens
Description: SANGER: Inhibition of human NCI-H1618 cell growth in a cell viability assay.

MDA-MB-468 = assay: cells; type: functional, cell-based; conditions: Homo sapiens
Description: SANGER: Inhibition of human MDA-MB-468 cell growth in a cell viability assay.

NCI-H716 = assay: cells; type: functional, cell-based; conditions: Homo sapiens
Description: SANGER: Inhibition of human NCI-H716 cell growth in a cell viability assay.

NCI-H322M = assay: cells; type: functional, cell-based; conditions: Homo sapiens
Description: SANGER: Inhibition of human NCI-H322M cell growth in a cell viability assay.

YT = assay: cells; type: functional, cell-based; conditions: Homo sapiens
Description: SANGER: Inhibition of human YT cell growth in a cell viability assay.

MEL-JUSO = assay: cells; type: functional, cell-based, Homo sapiens
Description: SANGER: Inhibition of human MEL-JUSO cell growth in a cell viability assay.

RT-4 = assay: SANGER: Inhibition of human RT4 cell growth in a cell viability assay.; type: functional, cell-based
23132-87 = assay: cells; type: functional, cell-based, Homo sapiens
Description: SANGER: Inhibition of human 23132-87 cell growth in a cell viability assay.

EW-7 = assay: SANGER: Inhibition of human EW-7 cell growth in a cell viability assay.; type: functional, cell-based
HCT-15 = assay: cells; type: functional, cell-based, Homo sapiens
Description: SANGER: Inhibition of human HCT-15 cell growth in a cell viability assay.

NCI-H2227 = assay: cells; type: functional, cell-based; conditions: Homo sapiens
Description: SANGER: Inhibition of human NCI-H2227 cell growth in a cell viability assay.

ECC12 = assay: cells; type: functional, cell-based; conditions: Homo sapiens
Description: SANGER: Inhibition of human ECC12 cell growth in a cell viability assay.

GDM-1 = assay: cells; type: functional, cell-based; conditions: Homo sapiens
Description: SANGER: Inhibition of human GDM-1 cell growth in a cell viability assay.

IM-9 = assay: SANGER: Inhibition of human IM-9 cell growth in a cell viability assay.; type: functional, cell-based
DMS-53 = assay: cells; type: functional, cell-based, Homo sapiens
Description: SANGER: Inhibition of human DMS-53 cell growth in a cell viability assay.

## COc1cc(F)c(F)c(Nc2ccc(I)cc2F)c1NS(=O)(=O)C1(CC(O)CO)CC1 (stereo unspecified)
CFPAC-1
  IC50: > 5 µM
HuO9; Homo sapiens, HuO9
  IC50: > 5 µM
RH-18
  IC50: > 5 µM
TI-73
  IC50: 1.83 µM
NCI-H1573
  IC50: > 5 µM
EPLC-272H
  IC50: 0.185 µM
ZR-75-30
  IC50: > 5 µM
LU-135
  IC50: > 5 µM
D-566MG
  IC50: 4.27 µM
NCI-H2029
  IC50: > 5 µM
NCI-H2291
  IC50: 0.397 µM
D-423MG
  IC50: > 5 µM
CHP-134
  IC50: > 5 µM

## Cc1cc([C@@H](C)Nc2ccccc2C(=O)O)c2nc(N3CCOCC3)cc(=O)n2c1 [AZD-6482]
SNG-M
  IC50: > 5.12 µM
HCC1599
  IC50: > 5.12 µM
Calu-1
  IC50: > 5.12 µM
MES-SA; mes-sa
  IC50: > 5.12 µM and 1.11 µM
CFPAC-1
  IC50: > 5.12 µM
HuO9; huo9
  IC50: 1.61 µM and > 5.12 µM
DV-90
  IC50: > 5.12 µM
THP-1
  IC50: > 5.12 µM
RH-18
  IC50: > 5.12 µM
NCI-H1573
  IC50: > 5.12 µM
DG-75
  IC50: > 5.12 µM
MFE-296
  IC50: 1.57 µM
TT
  IC50: > 5.12 µM
IPC-298
  IC50: > 5.12 µM
SU-DHL-1
  IC50: 0.568 µM
COR-L279
  IC50: > 5.12 µM
EPLC-272H
  IC50: > 5.12 µM
NCI-H1734
  IC50: > 5.12 µM
HCC1143
  IC50: > 5.12 µM
EHEB
  IC50: 2.98 µM
D-566MG
  IC50: 3.07 µM
CCF-STTG1
  IC50: 1.43 µM
SK-CO-1
  IC50: > 5.12 µM
NCI-H187
  IC50: > 5.12 µM
CPC-N
  IC50: > 5.12 µM
MDA-MB-134-VI
  IC50: > 5.12 µM
LU-165
  IC50: > 5.12 µM
EFE-184
  IC50: > 5.12 µM
NCI-H2029
  IC50: > 5.12 µM
OPM-2
  IC50: > 5.12 µM
SNU-475
  IC50: > 5.12 µM
TUR
  IC50: > 5.12 µM
JIYOYE
  IC50: > 5.12 µM
NCI-H2291
  IC50: 1.58 µM
C-4-II
  IC50: > 5.12 µM
LOUCY
  IC50: > 5.12 µM
NCI-H1618
  IC50: > 5.12 µM
D-423MG
  IC50: 2.94 µM
MDA-MB-468
  IC50: 1.54 µM
NCI-H716
  IC50: > 5.12 µM
NCI-H322M
  IC50: > 5.12 µM
YT
  IC50: 0.121 µM
MEL-JUSO; mel-juso
  IC50: > 5.12 µM
RT-4; rt-4
  IC50: > 5.12 µM
23132-87
  IC50: 3.36 µM
23132-87; Homo sapiens
  IC50: > 5.12 µM
EW-7; ew-7
  IC50: 0.864 µM and 3.11 µM
HCT-15; hct-15
  IC50: > 5.12 µM
NCI-H2227
  IC50: > 5.12 µM
ECC12
  IC50: > 5.12 µM
GDM-1
  IC50: 2.24 µM
IM-9
  IC50: > 5.12 µM
DMS-53; Homo sapiens, DMS-53
  IC50: > 5.12 µM
DMS-53; dms-53
  IC50: > 5.12 µM

## COc1cc([C@@H]2c3cc4c(cc3[C@@H](O[C@@H]3O[C@@H]5CO[C@@H](C)O[C@H]5[C@H](O)[C@H]3O)[C@H]3COC(=O)[C@H]23)OCO4)cc(OC)c1O [ETOPOSIDE]
SNG-M
  IC50: 1.16 µM
HCC1599
  IC50: 0.616 µM
Calu-1
  IC50: 7.89 µM
MES-SA; Homo sapiens, MES-SA
  IC50: 0.458 µM
HuO9; Homo sapiens, HuO9
  IC50: 0.926 µM
DV-90
  IC50: > 16 µM
THP-1
  IC50: > 16 µM
DG-75
  IC50: > 16 µM
MFE-296
  IC50: 0.763 µM
TT
  IC50: > 16 µM
IPC-298
  IC50: 4.33 µM
SU-DHL-1
  IC50: 0.959 µM
COR-L279
  IC50: 1.27 µM
NCI-H1734
  IC50: 1.51 µM
HCC1143
  IC50: > 16 µM
EHEB
  IC50: > 16 µM
CCF-STTG1
  IC50: 6.91 µM
SK-CO-1
  IC50: 1.63 µM
NCI-H187
  IC50: 0.674 µM
CPC-N
  IC50: > 16 µM
MDA-MB-134-VI
  IC50: > 16 µM
LU-165
  IC50: > 16 µM
EFE-184
  IC50: > 16 µM
OPM-2
  IC50: > 16 µM
SNU-475
  IC50: > 16 µM
TUR
  IC50: 0.722 µM
JIYOYE
  IC50: 2.54 µM
C-4-II
  IC50: 1.71 µM
LOUCY
  IC50: 0.177 µM
NCI-H1618
  IC50: > 16 µM
MDA-MB-468
  IC50: 1.47 µM
NCI-H716
  IC50: > 16 µM
NCI-H322M
  IC50: > 16 µM
YT
  IC50: > 16 µM
MEL-JUSO; Homo sapiens, MEL-JUSO
  IC50: 0.657 µM
RT-4; Homo sapiens, RT-4
  IC50: > 16 µM
23132-87; Homo sapiens
  IC50: 0.501 µM
EW-7; Homo sapiens, EW-7
  IC50: 0.125 µM
HCT-15; Homo sapiens, HCT-15
  IC50: 7.87 µM
NCI-H2227
  IC50: > 16 µM
ECC12
  IC50: 0.954 µM
GDM-1
  IC50: 3.4 µM
IM-9
  IC50: > 16 µM
DMS-53; Homo sapiens, DMS-53
  IC50: > 16 µM
